Patent publication US20120059052A1, “PRENYLFLAVONOID FORMULATIONS” (BIOACTIVES, INC., priority 2005, published 2012)
One block for each compound: values may come before it.

Tests used:
endothelial cells = endothelial cells invading collagen gel, capillary-like tubes; cited from earlier work
Cyp1A1 = target: T1, Cyp1A1 (Homo sapiens, UniProt P04798); details: cDNA-expressed human enzyme; cited from earlier work
T1 sequence (P04798 1-512): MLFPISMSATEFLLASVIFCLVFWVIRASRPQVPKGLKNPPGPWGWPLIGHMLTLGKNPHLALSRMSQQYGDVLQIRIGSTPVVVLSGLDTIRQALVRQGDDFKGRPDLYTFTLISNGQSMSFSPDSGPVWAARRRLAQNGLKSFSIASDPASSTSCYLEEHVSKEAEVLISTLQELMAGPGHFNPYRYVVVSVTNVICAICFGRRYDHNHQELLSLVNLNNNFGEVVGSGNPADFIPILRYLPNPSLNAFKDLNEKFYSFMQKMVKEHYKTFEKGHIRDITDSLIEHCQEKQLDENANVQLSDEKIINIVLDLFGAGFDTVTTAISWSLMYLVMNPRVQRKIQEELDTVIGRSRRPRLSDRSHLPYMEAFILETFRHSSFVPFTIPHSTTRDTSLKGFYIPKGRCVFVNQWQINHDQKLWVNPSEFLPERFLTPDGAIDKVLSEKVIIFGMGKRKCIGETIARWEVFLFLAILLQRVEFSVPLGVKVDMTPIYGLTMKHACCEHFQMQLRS

Cyp1B 1 = target: T2, Cyp1B 1 (Homo sapiens, UniProt Q16678); details: cDNA-expressed human enzyme; cited from earlier work
T2 sequence (Q16678 1-543): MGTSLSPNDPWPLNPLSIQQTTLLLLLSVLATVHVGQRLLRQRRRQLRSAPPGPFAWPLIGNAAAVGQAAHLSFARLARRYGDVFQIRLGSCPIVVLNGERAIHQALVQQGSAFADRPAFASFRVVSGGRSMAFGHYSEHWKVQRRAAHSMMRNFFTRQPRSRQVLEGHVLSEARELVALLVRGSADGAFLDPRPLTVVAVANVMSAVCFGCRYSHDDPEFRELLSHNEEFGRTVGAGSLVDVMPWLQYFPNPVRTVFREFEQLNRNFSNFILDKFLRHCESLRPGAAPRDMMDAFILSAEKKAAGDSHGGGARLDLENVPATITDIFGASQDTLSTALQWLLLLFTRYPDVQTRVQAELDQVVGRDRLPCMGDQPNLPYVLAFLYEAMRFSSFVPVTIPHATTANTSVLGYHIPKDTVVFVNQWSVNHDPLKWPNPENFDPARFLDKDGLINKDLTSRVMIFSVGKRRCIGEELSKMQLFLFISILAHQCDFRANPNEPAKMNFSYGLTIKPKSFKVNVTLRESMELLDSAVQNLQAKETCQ

Cyp1A2 = target: T3, Cyp1A2 (Homo sapiens, UniProt P05177); details: cDNA-expressed human enzyme; cited from earlier work
T3 sequence (P05177 1-516): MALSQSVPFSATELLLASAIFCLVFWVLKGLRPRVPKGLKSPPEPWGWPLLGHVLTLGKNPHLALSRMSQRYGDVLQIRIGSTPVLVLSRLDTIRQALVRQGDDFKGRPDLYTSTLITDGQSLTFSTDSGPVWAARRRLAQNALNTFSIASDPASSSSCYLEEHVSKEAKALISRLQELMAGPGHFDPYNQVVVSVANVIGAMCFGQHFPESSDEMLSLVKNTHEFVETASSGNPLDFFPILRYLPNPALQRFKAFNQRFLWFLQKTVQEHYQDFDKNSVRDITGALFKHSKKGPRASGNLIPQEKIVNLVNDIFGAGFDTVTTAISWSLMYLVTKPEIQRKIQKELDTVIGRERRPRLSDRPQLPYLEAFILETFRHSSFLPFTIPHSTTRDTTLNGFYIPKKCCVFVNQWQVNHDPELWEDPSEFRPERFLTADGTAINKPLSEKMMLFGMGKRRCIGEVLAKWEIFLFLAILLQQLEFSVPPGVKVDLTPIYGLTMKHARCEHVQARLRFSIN

HepG2 cells = assay: Incorporation of 14C-acetic acid into cholesterol in HepG2 cells; type: cell-based
Procedure: The incorporation of ^14C-acetic acid into cholesterol was examined in HepG2 cells. […] The IC50 was approximately 20 μM. In the same HepG2 cell assay system, atorvastatin (10 nM and 1 μM) inhibited acetate incorporation into cholesterol by 20% and 80% respectively.

HMG-CoA reductase = target: T4, HMG-CoA reductase (Homo sapiens, UniProt P04035); assay: HMG-CoA reductase assay in isolated liver microsomes; type: biochemical
T4 construct: from tissue; host or cells: liver microsomes
T4 sequence (P04035 1-888): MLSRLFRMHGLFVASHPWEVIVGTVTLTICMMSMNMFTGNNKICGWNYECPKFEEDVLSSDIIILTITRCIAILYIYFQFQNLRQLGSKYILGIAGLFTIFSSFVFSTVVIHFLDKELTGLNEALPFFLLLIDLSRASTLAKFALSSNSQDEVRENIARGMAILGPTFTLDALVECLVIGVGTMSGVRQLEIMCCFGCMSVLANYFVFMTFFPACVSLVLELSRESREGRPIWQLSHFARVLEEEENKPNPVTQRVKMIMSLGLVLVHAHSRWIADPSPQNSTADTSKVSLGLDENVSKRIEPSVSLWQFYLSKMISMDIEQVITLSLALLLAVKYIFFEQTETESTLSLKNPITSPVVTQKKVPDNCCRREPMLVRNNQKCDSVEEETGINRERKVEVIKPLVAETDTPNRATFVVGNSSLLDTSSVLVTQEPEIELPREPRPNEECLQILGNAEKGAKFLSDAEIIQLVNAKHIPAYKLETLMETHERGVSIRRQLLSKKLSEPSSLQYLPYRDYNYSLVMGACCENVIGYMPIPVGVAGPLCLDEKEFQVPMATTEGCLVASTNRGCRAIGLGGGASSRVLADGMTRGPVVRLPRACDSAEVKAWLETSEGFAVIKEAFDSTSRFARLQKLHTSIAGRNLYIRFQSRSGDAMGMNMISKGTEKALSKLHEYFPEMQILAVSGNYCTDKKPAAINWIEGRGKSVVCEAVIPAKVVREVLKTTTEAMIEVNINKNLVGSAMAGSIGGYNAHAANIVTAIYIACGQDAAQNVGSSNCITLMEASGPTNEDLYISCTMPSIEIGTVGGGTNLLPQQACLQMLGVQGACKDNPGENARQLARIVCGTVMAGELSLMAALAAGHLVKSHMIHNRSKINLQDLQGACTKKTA
Procedure: HMG-CoA reductase assays were performed in which increasing concentrations of xanthohumol (1 μM to 100 μM) were added to isolated liver microsomes. Xanthohumol had no effect on HMG-CoA reductase activity. As a positive control, atorvastatin (10 nM and 1 μM) was tested in the same assay, which inhibited reductase activity by 58% and 87% respectively. The protocol followed was as published in Telford et al. ATVB 2002; 22: 1884-1891.

Caco-2 cell monolayers [1] = assay: Caco-2 plate certification with control compounds; type: in vitro ADME; details: TW12, passage 63, age 22 days
Procedure: To test the permeability of xanthohumol across Caco-2 cell monolayers, Caco-2 cell monolayers were grown to confluence on collagen-coated, microporous, polycarbonate membranes in 12-well Costar Transwell® plates. Details of the plates and their certification are shown below in Table 3. The test article was also the aqueous xanthohumol formulation, and the dosing concentration was 2 μM in the assay buffer (HBSSg) as in the previous example. Cell monolayers were dosed on the apical side (A-to-B) or basolateral side (B-to-A) and incubated at 37° C. with 5% CO2 in a humidified incubator. Samples were taken from the donor chamber at 120 minutes, and samples from the receiver chamber were collected at 60 and 120 minutes. Each determination was performed in duplicate. Lucifer yellow permeability was also measured for each monolayer after being subjected to the test article to ensure no damage was inflicted to the cell monolayers during the permeability experiment. All samples were assayed for Xanthohumol by LC/MS/MS using electrospray ionization. The apparent permeability (Papp), and percent recovery were calculated as described above.

Caco-2 cell monolayers [2] = assay: Permeability across Caco-2 cell monolayers; type: in vitro ADME
Procedure: Percent Recovery=100×((Vr×Cr^final)+(Vd×Cd^final))/(Vd×C0)
• dCr/dt is the slope of the cumulative concentration in the receiver compartment versus time in μMs^−1. • Vr is the volume of the receiver compartment in cm^3. • Vd is the volume of the donor compartment in cm^3. • A is the area of the cell-free insert (1.13 cm^2 for 12-well Transwell). • Cr^final is the cumulative receiver concentration in μM at the end of the incubation period. • Cd^final is the concentration of the donor in μM at the end of the incubation period. • C0 is the initial concentration of the dosing solution in μM.
Each determination was performed in duplicate.

[3] = cited from earlier work
[4] = oral doses, animal; cited from earlier work
inducible COX-2 = target: T5, inducible COX-2 (Homo sapiens, UniProt P35354); details: read-out: IC50, inhibition of COX-2; cited from earlier work
T5 sequence (P35354 18-604): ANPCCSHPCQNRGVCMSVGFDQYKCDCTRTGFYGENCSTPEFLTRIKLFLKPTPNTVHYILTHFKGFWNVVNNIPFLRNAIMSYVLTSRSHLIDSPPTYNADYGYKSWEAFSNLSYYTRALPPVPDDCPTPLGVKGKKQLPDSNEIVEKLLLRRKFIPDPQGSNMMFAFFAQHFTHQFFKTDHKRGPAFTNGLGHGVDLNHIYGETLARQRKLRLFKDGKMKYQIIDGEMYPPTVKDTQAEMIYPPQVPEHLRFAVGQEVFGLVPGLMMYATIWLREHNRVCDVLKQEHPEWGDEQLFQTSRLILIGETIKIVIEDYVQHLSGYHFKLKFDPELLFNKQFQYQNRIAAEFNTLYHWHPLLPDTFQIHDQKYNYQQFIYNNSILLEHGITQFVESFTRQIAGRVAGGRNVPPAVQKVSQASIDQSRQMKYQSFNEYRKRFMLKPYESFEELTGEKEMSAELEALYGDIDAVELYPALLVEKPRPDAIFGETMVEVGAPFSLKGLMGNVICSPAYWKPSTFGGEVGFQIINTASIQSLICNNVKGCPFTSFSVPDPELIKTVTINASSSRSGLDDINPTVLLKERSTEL

constitutive COX-1 = target: T6, constitutive COX-1 (Ovis aries, UniProt P05979); details: read-out: IC50, inhibition of COX-1; cited from earlier work
T6 sequence (P05979 25-600): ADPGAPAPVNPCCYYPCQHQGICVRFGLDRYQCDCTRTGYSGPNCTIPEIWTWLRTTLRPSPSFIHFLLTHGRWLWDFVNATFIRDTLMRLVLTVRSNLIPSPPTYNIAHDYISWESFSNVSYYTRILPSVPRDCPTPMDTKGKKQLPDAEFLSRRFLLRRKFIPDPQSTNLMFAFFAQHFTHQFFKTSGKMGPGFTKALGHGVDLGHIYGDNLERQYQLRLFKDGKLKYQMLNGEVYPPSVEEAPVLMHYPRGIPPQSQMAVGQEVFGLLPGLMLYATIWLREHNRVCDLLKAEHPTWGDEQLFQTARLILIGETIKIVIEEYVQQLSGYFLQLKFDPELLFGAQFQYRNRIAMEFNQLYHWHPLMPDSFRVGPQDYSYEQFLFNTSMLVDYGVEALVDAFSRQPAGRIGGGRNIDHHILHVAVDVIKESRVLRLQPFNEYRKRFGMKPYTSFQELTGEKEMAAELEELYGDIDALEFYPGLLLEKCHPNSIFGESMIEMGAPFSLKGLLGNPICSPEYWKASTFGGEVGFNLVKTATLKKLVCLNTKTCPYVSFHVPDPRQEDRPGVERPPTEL

[5] = human, Caco-2, 120 min, 2 μM, pH 7.4

Compound: CC(C)=CCc1c(O)cc(O)c2c1O[C@H](c1ccc(O)cc1)CC2=O [8-prenylnaringenin]
Effect on angiogenesis in vitro (endothelial cells): inhibits angiogenesis
Inhibition of Cyp1A1 (Cyp1A1): strongly inhibit
Inhibition of Cyp1B1 (Cyp1B 1): strongly inhibit
Inhibition of Cyp1A2 (Cyp1A2): strongly inhibit

inhibition at 0.01 µM (HMG-CoA reductase; 10 nM): 58%
inhibition at 1 µM (HMG-CoA reductase; 1 μM): 87%
Compound: CC(C)c1c(C(=O)Nc2ccccc2)c(-c2ccccc2)c(-c2ccc(F)cc2)n1CC[C@@H](O)C[C@@H](O)CC(=O)O [atorvastatin, reference compound]
inhibition at 0.01 µM (HepG2 cells; Homo sapiens, 10 nM, read-out: Inhibition of acetate incorporation into cholesterol): 20%
inhibition at 1 µM (HepG2 cells; Homo sapiens, 1 μM, read-out: Inhibition of acetate incorporation into cholesterol): 80%

Papp (Caco-2 cell monolayers [1]): 0.13 ×10⁻⁶ cm/s
Lucifer yellow Papp, post-experiment integrity control (Caco-2 cell monolayers [2]; all monolayers, after exposure to test article): < 0.8 ×10⁻⁶ cm/s
Compound: Lucifer Yellow [reference compound]

Compound: COc1cc(O)c(CC=C(C)C)c2c1C(=O)CC(c1ccc(O)cc1)O2 (stereo not drawn) [isoxanthohumol]
Inhibition of Cyp1A1 (Cyp1A1): strongly inhibit
Inhibition of Cyp1B1 (Cyp1B 1): strongly inhibit
Inhibition of Cyp1A2 (Cyp1A2): strongly inhibit

IC50 (HepG2 cells; Homo sapiens, read-out: IC50, cholesterol synthesis): ~20 µM
Significant Efflux (Caco-2 cell monolayers [2]; Caco-2): No
Papp, Average (Caco-2 cell monolayers [2]; [5]): 1.77 10^−6 cm/s
Papp, Rep. 1 (Caco-2 cell monolayers [2]; [5]): 0.94 10^−6 cm/s
Effect on HMG-CoA reductase activity (HMG-CoA reductase; 1 μM to 100 μM, isolated liver microsomes): no effect
Compound: COc1cc(O)c(CC=C(C)C)c(O)c1C(=O)/C=C/c1ccc(O)cc1 [Xanthohumol, xanthohumol]
Cholesterol synthesis inhibition (HepG2 cells; 0.5 μM to 100 μM): inhibited in a dose-responsive manner
Effect on incorporation of 14C-acetic acid into cholesterol (HepG2 cells; concentrations below 500 nM): No affect
Solubility in water [3]: virtually insoluble
Bioavailability [4]: very low bioavailability
IC50 (inducible COX-2): 42 µM
Inhibition of Cyp1A1 (Cyp1A1): strongly inhibit
Inhibition of Cyp1B1 (Cyp1B 1): strongly inhibit
IC50 (constitutive COX-1): 17 µM
Inhibition of Cyp1A2 (Cyp1A2): strongly inhibit
